Earlier results on 2 compounds are cited in patent US8841262B2, “Agent for inhibiting peritoneal membrane thickening” (CCI Corporation, priority 2009, dated 2014).

Data set [1] deals with vascular endothelial growth factor (VEGF). Particulars: administration of TNP-470, reported in Non-Patent Literature 1.
Data set [2] deals with peritoneal membrane thickening. To be noted: ganciclovir infused into the abdominal cavity, in 2 weeks; reported in Non-Patent Literature 3.

As for `CO[C@@H]1[C@H](OC(=O)NC(=O)CCl)CC[C@]2(CO2)[C@H]1[C@@]1(C)O[C@@H]1CC=C(C)C` [TNP-470], in data set [1], the myofibroblastic cell proliferation entry is listed as “suppression” and the neoangiogenesis entry is given as “inhibition”.

For the compound `Nc1nc(O)c2ncn(COC(CO)CO)c2n1` [ganciclovir], the “peritoneal membrane thickening after chlorhexidine” value in data set [2] is “alleviated”.
